{
  "source": "patent US11467151B1",
  "about": "“Phosphorescence oxygen analyzer and uses thereof” (priority 2021, dated 2022)",
  "system": "striatal tissue",
  "experiment": "Striatal cellular respiration (oxygen consumption of striatal fragments, phosphorescence oxygen analyzer)",
  "assay_type": "cell-based, C57BL6 male mice",
  "conditions": "for effect on striatal cellular respiration (in words): in vitro, viable striatal tissue; for time over which the inhibitory effects remained relatively stable: with glucose, repeated additions of toxin (FIG. 3B, FIG. 4B)",
  "method": "C57BL6 male mice (13 weeks old, about 20 g weight) were housed at 22° C. with 60% humidity and 12-h light-dark cycles. Rodent chow and filtered water were provided ad libitum. The study was approved from the UAE University Animal Research Ethics Committee (Ref. ERA-20196026). Diethyl ether was used for anesthesia.\nThe studied mice were not treated in any way prior to striatal tissue collection. The skin and skull were cut to expose the whole brain, which was then rapidly removed and placed in a freshly prepared Pd phosphor solution: Phosphate-buffered saline (PBS: 137 mM NaCl, 2.7 mM KCl, 4.3 mM Na2HPO4, and 1.4 mM KH2PO4, pH 7.4), 3.0 μM Pd phosphor, 0.5% fat-free albumin, with and without 5.0 mM glucose. The brain region that contained the striatum was dissected. The specimen weight was determined prior to placing it in the oxygen measuring vial that contained 2.0 mL of the Pd phosphor solution. A small portion of the specimen was stored at −80° C. for Western blot analysis.\nFor oxygen analysis, our previously described phosphorescence oxygen analyzer was used to monitor oxygen consumption at 25° C. in the studied striatal fragments. In reaction vials sealed from air, oxygen concentration decreased linearly with time (zero-order kinetics); the rate (k, in μM O2 min^−1) was thus the negative of d [O21/dt. The calibration reactions utilized glucose oxidase (D-glucose+O2→D-glucono-δ-lactone+H2O2) and […]. Dissolved oxygen in the solution was also depleted by the addition of glucose oxidase plus […]. Potassium cyanide (KCN, added from a stock prepared in dH2O immediately before use) inhibited respiration, confirming oxygen was consumed in cytochrome oxidase.",
  "data": [
    {"compound": "C[n+]1ccc(-c2ccccc2)cc1.[I-]", "note": "[MPP+, 1-Methyl-4-phenylpyridinium iodide]", "values": [
      {"measurement": "rate of respiration (k) in the presence of MPP+", "setting": "1.25 mM MPP+, Pd phosphor solution with 5.0 mM glucose, 25° C., n=3, p=0.048", "value": "0.077±0.006", "unit": "μM O2 min^−1 mg^−1"},
      {"measurement": "effect on striatal cellular respiration (in words)", "value": "inhibited"},
      {"measurement": "time over which the inhibitory effects remained relatively stable", "value": "about 300 min"}
    ]},
    {"compound": "C=C(C)[C@H]1Cc2c(ccc3c2O[C@@H]2COc4cc(OC)c(OC)cc4[C@@H]2C3=O)O1", "note": "[rotenone, Rotenone]", "values": [
      {"measurement": "rate of respiration (k) in the presence of rotenone", "setting": "10 μM rotenone, Pd phosphor solution with 5.0 mM glucose, 25° C., mean±SD, n=5, without toxin 0.141 (n=7), P=0.073", "value": "0.092±0.022", "unit": "μM O2 min^−1 mg^−1"},
      {"measurement": "effect on striatal cellular respiration (in words)", "value": "inhibited"},
      {"measurement": "time over which the inhibitory effects remained relatively stable", "value": "about 100 min"}
    ]}
  ]
}
